Values of other authors in US6641838B2, “Effervescent drug delivery system for oral administration” (Cima Labs Inc., priority 1998, dated 2003).

Details: in vivo, po

| Molecule | Bioavailability (%) | average bioavailability | range of bioavailability (inter- and intrasubject variability) |
| --- | --- | --- | --- |
| Methyldopa | 25 ± 16 | 25% | – |
| Oc1ccc2c3c1O[C@H]1[C@@H](O)CC[C@@]4(O)[C@@H](C2)N(CC2CCC2)CC[C@]314 [Nalbuphine] | 25 ± 16 | approximately 17% | 6-40% |
| CNC1(c2ccccc2Cl)CCCCC1=O (stereo not shown) [Ketamine] | 20 ± 7 | – | – |
| CN(C)C(=O)Oc1ccc[n+](C)c1 [Pyridostigmine] | 14 ± 3 | – | – |

Same assay, conditions: orally administered drug, conventional dosage forms; examples of drugs with poor bioavailability

| Molecule | Bioavailability (%) |
| --- | --- |
| CN(C)CCC=C1c2ccccc2COc2ccccc21 [Doxepin] | 27 ± 10% |
| CC(=O)CCCCn1c(=O)c2c(ncn2C)n(C)c1=O [Pentoxifylline] | 19 ± 13% |
| CC(C)(C)NCC(O)c1cc(O)cc(O)c1 (stereo not shown) [Terbutaline] | 14 ± 2% |
| CC(CCc1ccccc1)NCC(O)c1ccc(O)c(C(N)=O)c1 (stereo not shown) [Labetalol] | 18 ± 5% |
| CC[N+](C)(C)Cc1ccccc1Br [Bretylium] | 23 ± 9% |
| NNc1nncc2ccccc12 [Hydralazine] | 16 − 35% |
| CC(=O)OC[C@H]1O[C@@H]([S-])[C@H](OC(C)=O)[C@@H](OC(C)=O)[C@@H]1OC(C)=O.CCP(CC)CC.[Au+] [Auranofin] | 15 − 25% |
| C=CCN1CC[C@]23c4c5ccc(O)c4O[C@H]2C(=O)CC[C@@]3(O)[C@H]1C5 [Naloxone] | 2% |
| Sc1ncnc2nc[nH]c12 [Mercaptopurine] | 12 ± 7% |
| Cc1cc2nc3c(=O)[nH]c(=O)nc-3n(C[C@H](O)[C@H](O)[C@H](O)CO)c2cc1C [Riboflavin] | 11% |
| Nc1nc2c(ncn2COCCO)c(=O)[nH]1 [Acyclovir] | 15 − 30% |
| Nc1ccn([C@@H]2O[C@H](CO)[C@@H](O)[C@@H]2O)c(=O)n1 [Cytarabine] | 20% |
